According to patent US20090209536A1, “AMINOQUINAZOLINE CANNABINOID RECEPTOR MODULATORS FOR TREATMENT OF DISEASE” (KALYPSYS, INC., priority 2007, published 2009):
Where two headings read alike, the source gives them in different places.

Key:
[1] = molecular target: T1, human cannabinoid receptor type 1 (Homo sapiens, UniProt P21554); experiment: Human CB1 Radioligand Binding Assay (basis of selectivity, CB2 vs. CB1); settings: CB1: HEK 293 EBNA cells expressing human CB1; CB2: CHO CB2 membranes
T1 construct: purchased Perkin Elmer RBHCB1M; host or cells: HEK 293 EBNA cells
T1 sequence (P21554 whole entry): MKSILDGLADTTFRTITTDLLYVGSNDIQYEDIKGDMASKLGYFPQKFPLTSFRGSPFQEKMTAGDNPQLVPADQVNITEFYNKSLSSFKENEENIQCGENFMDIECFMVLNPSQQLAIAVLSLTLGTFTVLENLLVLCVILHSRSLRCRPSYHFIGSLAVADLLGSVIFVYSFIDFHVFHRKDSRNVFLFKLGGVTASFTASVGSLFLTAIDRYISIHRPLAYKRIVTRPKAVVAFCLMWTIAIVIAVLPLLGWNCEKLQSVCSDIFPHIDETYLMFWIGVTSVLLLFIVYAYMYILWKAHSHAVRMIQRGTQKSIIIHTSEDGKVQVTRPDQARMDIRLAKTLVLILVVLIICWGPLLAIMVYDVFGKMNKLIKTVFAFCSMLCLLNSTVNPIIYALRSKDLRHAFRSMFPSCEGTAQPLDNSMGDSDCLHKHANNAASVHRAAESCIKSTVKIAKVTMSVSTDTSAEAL
Method: 2. Human CB1 Radioligand Binding Assay
The incubation buffer was composed of 50 mM Tris-HCl pH 7.4, 2.5 mM EDTA, 5 mM MgCl2, 5.0 mg/ml fatty acid free BSA and the wash buffer was composed of 50 mM Tris-HCl pH 7.4, 2.5 mM EDTA, 5 mM MgCl2, 0.5 mg/ml fatty acid free BSA.

[2] = molecular target: T2, human cannabinoid receptor type 2 (Homo sapiens, UniProt P34972); experiment: Human CB2 Radioligand Binding Assay; settings: membranes from stably transfected CHO CB2 cells
T2 construct: expressed in transfected cells; membrane preparation
T2 sequence (P34972 whole entry): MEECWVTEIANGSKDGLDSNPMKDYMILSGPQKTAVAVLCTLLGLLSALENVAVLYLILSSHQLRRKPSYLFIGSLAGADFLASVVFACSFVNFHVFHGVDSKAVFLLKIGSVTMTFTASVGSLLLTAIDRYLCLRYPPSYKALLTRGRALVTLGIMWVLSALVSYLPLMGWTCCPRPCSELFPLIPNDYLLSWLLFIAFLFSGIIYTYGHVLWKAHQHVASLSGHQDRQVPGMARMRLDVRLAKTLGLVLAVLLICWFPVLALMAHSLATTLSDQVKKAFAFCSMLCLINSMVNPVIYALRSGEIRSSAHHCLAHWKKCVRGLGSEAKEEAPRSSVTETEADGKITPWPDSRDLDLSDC
Method: 1. Human CB2 Radioligand Binding Assay
This receptor binding filtration assay measures the receptor-ligand interactions of compounds by measuring ability to compete with a radiolabeled control ligand. Reactions were performed in 96 deep-well plate (Costar 3961) with a final volume of 600 ul. Compounds were added to each well either in single point (10 uM final) or dose-response. Compounds were delivered in DMSO or further diluted in incubation buffer to a final assay DMSO concentration of 1%. Incubation buffer (50 mM Tris-HCl pH 7.4, 2.5 mM EGTA, 5 mM MgCl2, 5.0 mg/ml fatty acid free BSA) was added to each well. Following buffer addition, [^3H] CP-55,940 was added. Tritiated CP-55,940 (Perkin Elmer) was used at the Kd determined from prior saturation binding experiments conducted on each lot of membranes. Membrane preparations from stably transfected CHO CB2 cells were added and the reaction was incubated for 90 minutes at 30° C. Unifilter GF/C filtration plates (Perkin Elmer) were pre-wet with 0.05% polyethylenimine. Samples were transferred to Unifilter plates and separation of unbound radioligand was achieved using a vacuum manifold (Millipore). Following thorough washing with 5 ml/well ice-cold wash buffer (50 mM Tris-HCl pH 7.4, 2.5 mM EGTA, 5 mM MgCl2, 0.5 mg/ml fatty acid free BSA), filterplates were dried completely. Betaplate Scint Scintillation cocktail (25 ul, Perkin Elmer) was applied and plates were read using Microbeta Trilux (Wallac). Data analysis was performed in Spotfire. Activity of the positive control (100 nM CP-55,940) was set as 100% efficacy.
Stable recombinant Human CB2-CHO cell membranes were prepared as follows: Chinese Hamster Ovarian (CHO) cells stably expressing human cannabinoid receptor type 2 were grown to 90% confluence in 15×100 mm culture dishes under puromycin selection (5 ug/ml) Cells were harvested from culture flasks using a cell scraper, were washed once with cold phosphate-buffered saline (calcium and magnesium free) and pelleted by centrifugation at 400 g for 5 min at 4° C. Cell pellet was washed once with cold phosphate-buffered saline and centrifuged again at 400×g for 5 min at 4° C. The pellet was suspended in ice-cold lysis buffer (10 mM Tris-HCl, 0.1 mM EDTA, containing […], pH 7.5) and homogenized in a chilled 7 ml glass dounce homogenizer using 50 strokes. The homogenate was centrifuged at 400 g for 15 min at 4° C. The cloudy supernatant was collected and centrifuged at 41000 g for 30 min at 4° C. The resulting pellet was washed with ice-cold sucrose-free lysis buffer and centrifuged again at 41000 g for 30 min at 4° C. The membrane pellet was suspended in sucrose-free storage buffer (10 mm Tris-HCl, 0.1 mM EDTA, pH 7.5) to a concentration of 2-3 mg protein/ml. Aliquots were flash frozen in liquid nitrogen and stored at −80° C. Concentration was determined using Dc protein assay kit (Bio-Rad).

[3] = competition with [3H] CP-55,940, read-out: CB2 Ligand Binding Asssay EC50

Selectivity, CB2 vs. CB1 [1]	EC50 [2, 3] [nM]	SMILES	EC50 ([2]; CB2 Ligand Binding Asssay EC50, competition with [3H] CP-55,940) [nM]
− (− indicates ≦ 10−fold)	> 1000	Cc1ccccc1-c1nc(N2CCCC2)c2ccccc2n1 [Example 155, 4-Pyrrolidin-1-yl-2-o-tolylquinazoline]	
+ (+ indicates > 10−fold)	< 1000	CCCN1CCN(c2nc(-c3ccccc3Cl)nc3ccccc23)CC1 [Example 108, 2-(2-Chlorophenyl)-4-(4-propylpiperazin-1-yl)quinazoline]	
	< 1000	CC(C)(C)c1ccc(-c2nc(NC3CCCCC3)c3ccccc3n2)cc1 [Example 129, 2-(4-tert-Butylphenyl)quinazolin-4-yl cyclohexylamine]	
− (− indicates ≦ 10−fold)	< 1000	FC(F)(F)Oc1ccc(-c2nc(N3CCCCC3)c3ccccc3n2)cc1 [Example 140, 4-Piperidin-1-yl-2-(4-trifluoromethoxyphenyl)quinazoline]	
+ (+ indicates > 10−fold)	< 1000	COc1ccc2nc(-c3ccccc3Cl)nc(N3CCCC3)c2c1 [Example 179, 2-(2-Chlorophenyl)-6-methoxy-4-(pyrrolidin-1-yl)quinazoline]	
− (− indicates ≦ 10−fold)	> 1000	Clc1ccnc(N2CCN(c3nc(-c4ccccc4Cl)nc4ccccc34)CC2)n1 [Example 198]	
− (− indicates ≦ 10−fold)	< 1000	FC(F)(F)C1CCN(c2nc(-c3ccccc3Cl)nc3ccccc23)CC1 [Example 60, 2-(2-Chlorophenyl)-4-(4-(trifluoromethyl)piperidin-1-yl)quinazoline]	
− (− indicates ≦ 10−fold)	> 1000	Clc1ccccc1-c1nc(N2CCN(c3nccs3)CC2)c2ccccc2n1 [Example 264, 2-(4-(2-(2-Chlorophenyl)quinazolin-4-yl)piperazin-1-yl)thiazole]	
	< 1000	O=S(=O)(NCc1nc(N2CCOCC2)c2ccccc2n1)c1ccccc1Br [Example 292, 2-Bromo-N-((4-morpholinoquinazolin-2-yl)methyl)benzenesulfonamide]	
	> 1000	COC(CNc1nc(-c2ccccc2Cl)nc2ccccc12)OC [Example 230, 2-(2-Chlorophenyl)-N-(2,2-dimethoxyethyl)quinazolin-4-amine]	
	< 1000	CN(Cc1ccccc1)c1nc(C2CCCCC2)nc2ccccc12 [Example 39, N-Benzyl-2-cyclohexyl-N-methylquinazolin-4-amine]	
	> 1000	c1ccc2c(N3CCCC3)nc(C3CCCC3)nc2c1 [Example 135, 2-Cyclopentyl-4-pyrrolidin-1-ylquinazoline]	
	> 1000	Fc1ccc(-c2nc(N3CCCC3)c3ccccc3n2)cc1F [Example 14, 2-(3,4-Difluorophenyl)-4-(pyrrolidin-1-yl)quinazoline]	

The next lines start with the compound.

SMILES	Selectivity, CB2 vs. CB1 [1]	EC50 [2, 3] [nM]	EC50 ([2]; CB2 Ligand Binding Asssay EC50, competition with [3H] CP-55,940) [nM]
CCOC(=O)N1CCN(c2nc(-c3ccccc3Cl)nc3cc(Cl)ccc23)CC1 [Example 234, Ethyl 4-(7-chloro-2-(2-chlorophenyl)quinazolin-4-yl)piperazine-1-carboxylate]	− (− indicates ≦ 10−fold)	> 1000	
CC(=O)N1CCN(c2nc(-c3ccccc3Cl)nc3cccc(Cl)c23)CC1 [Example 265, 1-(4-(5-Chloro-2-(2-chlorophenyl)quinazolin-4-yl)piperazin-1-yl)ethanone]	+ (+ indicates > 10−fold)	< 1000	
CCOC(=O)N1CCN(c2nc(-c3ccc(C(C)(C)C)cc3)nc3ccc(OC)cc23)CC1 [Example 250, Ethyl 4-(2-(4-tert-butylphenyl)-6-methoxyquinazolin-4-yl)piperazine-1-carboxylate]	+ (+ indicates > 10−fold)	< 1000	
COC(=O)c1ccc2nc(-c3ccccc3Cl)nc(Nc3cccc(OC(F)(F)F)c3)c2c1 [Example 326, Methyl 2-(2-chlorophenyl)-4-(3-(trifluoromethoxy)phenylamino)quinazoline-6-carboxylate]	− (− indicates ≦ 10−fold)	> 1000	
CC(=O)N1CCN(c2nc(-c3ccccc3Cl)nc3cc(C(=O)N4CCCCC4)ccc23)CC1 [Example 324, 1-(4-(2-(2-Chlorophenyl)-7-(piperidine-1-carbonyl)quinazolin-4-yl)piperazin-1-yl)ethanone]	− (− indicates ≦ 10−fold)	> 1000	
CCOC(=O)N1CCN(c2nc(-c3ccc(Cl)cc3)nc3ccc(Cl)cc23)CC1 [Example 210, Ethyl 4-(6-chloro-2-(4-chlorophenyl)quinazolin-4-yl)piperazine-1-carboxylate]		> 1000	
CCOC(=O)N1CCN(c2nc(-c3ccccc3Cl)nc3cc(C(=O)NC(C)C)ccc23)CC1 [Example 320, Ethyl 4-(2-(2-chlorophenyl)-7-(isopropylcarbamoyl)quinazolin-4-yl)piperazine-1-carboxylate]	− (− indicates ≦ 10−fold)	> 1000	
CC(=O)N1CCN(c2nc(-c3ccccc3Cl)nc3cc(Cl)ccc23)CC1 [Example 233, 1-(4-(7-Chloro-2-(2-chlorophenyl)quinazolin-4-yl)piperazin-1-yl)ethanone]	− (− indicates ≦ 10−fold)	< 1000	
CC(=O)N1CCN(c2nc(-c3ccc(Cl)cc3Cl)nc3ccccc23)CC1 [Example 202, 1-(4-(2-(2,4-Dichlorophenyl)quinazolin-4-yl)piperazin-1-yl)ethanone]	− (− indicates ≦ 10−fold)	< 1000	
COc1ccc(CNC(=O)c2ccc3c(N4CCN(C(C)=O)CC4)nc(-c4ccccc4Cl)nc3c2)cc1 [Example 325, 4-(4-Acetylpiperazin-1-yl)-2-(2-chlorophenyl)-N-(4-methoxybenzyl)quinazoline-7-carboxamide]	− (− indicates ≦ 10−fold)	> 1000	
CC(C)OC(=O)N1CCN(c2nc(-c3ccccc3Cl)nc3ccccc23)CC1 [Example 93, Isopropyl 4-(2-(2-chlorophenyl)quinazolin-4-yl)piperazine-1-carboxylate]	+ (+ indicates > 10−fold)		> 1000
CC(C)(C)c1ccc(Nc2nc(-c3ccc(F)c(F)c3)nc3ccccc23)cc1 [Example 20, N-(4-tert-Butylphenyl)-2-(3,4-difluorophenyl)quinazolin-4-amine]	+ (+ indicates > 10−fold)	< 1000	
COC(=O)c1ccc2nc(-c3ccccc3Cl)nc(Nc3ccccc3C)c2c1 [Example 329, Methyl 2-(2-chlorophenyl)-4-(o-tolylamino)quinazoline-6-carboxylate]		> 1000	
Cc1c(Cl)cccc1S(=O)(=O)NCc1nc(N2CCOCC2)c2ccccc2n1 [Example 295, 3-Chloro-2-methyl-N-((4-morpholinoquinazolin-2-yl)methyl)benzenesulfonamide]		> 1000	
CCOC(=O)N1CCN(c2nc(-c3ccccc3Cl)nc3cc(C(=O)N(CC)CC)ccc23)CC1 [Example 319, Ethyl 4-(2-(2-chlorophenyl)-7-(diethylcarbamoyl)quinazolin-4-yl)piperazine-1-carboxylate]		> 1000	
CC(C)(C)c1ccc(Nc2nc(-c3ccc(OC(F)(F)F)cc3)nc3ccccc23)cc1 [Example 143, (4-tert-Butylphenyl)-[2-(4-trifluoromethoxyphenyl)-quinazolin-4-yl]amine]		> 1000	
CN1CCN(c2nc(-c3ccccc3Cl)nc3ccc(Br)cc23)CC1 [Example 183, 6-Bromo-2-(2-chlorophenyl)-4-(4-methylpiperazin-1-yl)quinazoline]		< 1000	
O=S(=O)(NCc1nc(N2CCOCC2)c2ccccc2n1)c1ccc(Cl)cc1 [Example 293, 4-Chloro-N-((4-morpholinoquinazolin-2-yl)methyl)benzenesulfonamide]		> 1000	
